Assay results reported in US12653892B2, “Composition and method for new therapeutic agents including guanidinium-presenting dendrimers and branched structures” (priority 2020, dated 2026).
≈ marks a conversion by molar mass, not a printed value. Like-named read-outs stand apart in the source and are kept apart here.

Tests used:
S. aureus ATCC 29213 [1] = test: MIC by broth microdilution, S. aureus ATCC 29213; assay type: cell-based; conditions: S. aureus (ATCC 29213); for MIC: read-out: MIC, Antibiotic Alone; for MIC, Antibiotic +NH2-triguan-6C / MIC, Antibiotic +NO2-triamine-2C / MIC, Antibiotic +NO2-triamine-6C: non-covalent mixture
Method: (§1) Methods—Determination of MICs: MICs for S. aureus, E. faecium, E. coli, P aeruginosa, A. baumannii, K. pneumoniae were determined using broth microdilution in accordance with CLSI methods (Wiegand, I.; Hilpert, K.; Hancock, R. E. W. Agar and Broth Dilution Methods to Determine the Minimal Inhibitory Concentration (MIC) of Antimicrobial Substances. Nat. Protoc. 2008, 3, 163-175). One day prior to each MIC experiment, bacterial strains were streaked for single colonies on TSA plates from frozen glycerol stocks stored at −80° C. Three to five colonies from each plate were harvested with a disposable inoculating loop and resuspended in 500 μL of PBS to create a bacterial suspension. Alternatively, a single colony of the appropriate bacterial strain was added to 4 mL TSB for overnight growth at 37° C. with 200 rpm shaking to create a stationary phase bacterial suspension. The suspension was diluted in PBS to an OD600 of 0.1 (˜[…] CFU/ml), and the OD 0.1 suspension was diluted 1:100 in Mueller Hinton broth (MHB, Difco 257530) just prior to inoculating the 96-well polypropylene treatment plate (Costar 3879). A 50 μL portion of inoculum was added to a treatment plate containing 2-fold serial dilutions of compound in MHB (50 μL of treatment/well) to lend a final total volume of 100 μL/well and a final inoculum density of ˜5×10^5 CFU/ml. The completed assay plate was sealed with Parafilm, placed in a lidded plastic tray lined with moistened paper towels, and incubated at 37° C. for approximately 20 hours. The MIC was read as the lowest treatment concentration where no bacterial growth occurred, as determined by OD600 measurements on a microplate reader. If a different plate or media type was used for a particular test, this is noted below the respective table.

S. aureus ATCC 29213 [2] = conditions: cited from earlier work
E. coli ATCC 25922 [3] = test: MIC by broth microdilution, E. coli ATCC 25922; assay type: cell-based; conditions: E. coli (ATCC 25922)
Method: as §1

E. coli ATCC 25922 [4] = conditions: cited from earlier work
[5] = Mueller Hinton Broth, polypropylene plate
[6] = Staphylococcus aureus, ATCC29213, 20 h, Mueller Hinton Broth, polypropylene plate
[7] = cation-adjusted MHB2, polystyrene microwell plate (Costar 3370)

Row | MIC, Antibiotic +NH2-triguan-6C (S. aureus ATCC 29213 [1]; [5]) [µM] | MIC, Antibiotic +NO2-triamine-2C (S. aureus ATCC 29213 [1]; [5]) [µM] | MIC, Antibiotic +NO2-triamine-6C (S. aureus ATCC 29213 [1]; [5]) [µM] | MIC (S. aureus ATCC 29213 [1]; [6]) [µM] | Compound | Literature MIC (S. aureus ATCC 29213 [2]) [µM] | also measured
1 | 2 (≈ 0.669 µg/mL) | 4 (≈ 1.34 µg/mL) | 4 (≈ 1.34 µg/mL) |  | CC1(C)S[C@@H]2[C@H](NC(=O)Cc3ccccc3)C(=O)N2[C@H]1C(=O)O [Penicillin G] | 0.084 to 5.6 | MIC (S. aureus ATCC 29213 [1]; [5]): 2 µM (≈ 0.669 µg/mL)
2 | 0.016 (≈ 0.0132 µg/mL) | 0.016 (≈ 0.0132 µg/mL) | 0.016 (≈ 0.0132 µg/mL) | 0.016 (≈ 0.0132 µg/mL) | CO[C@H]1/C=C/O[C@@]2(C)Oc3c(C)c(O)c4c(O)c(c(/C=N/N5CCN(C)CC5)c(O)c4c3C2=O)NC(=O)/C(C)=C\C=C\[C@H](C)[C@H](O)[C@@H](C)[C@@H](O)[C@@H](C)[C@H](OC(C)=O)[C@@H]1C [Rifampicin] |  | 

Second part, the molecule before the results:

Row | Compound | MIC, Antibiotic +NH2-triguan-6C (S. aureus ATCC 29213 [1]; [5]) [µM] | MIC, Antibiotic +NO2-triamine-2C (S. aureus ATCC 29213 [1]; [5]) [µM] | MIC, Antibiotic +NO2-triamine-6C (S. aureus ATCC 29213 [1]; [5]) [µM] | MIC (S. aureus ATCC 29213 [1]; [6]) [µM] | Literature MIC (S. aureus ATCC 29213 [2]) [µM] | also measured
3 | O=C(N[C@H](CO)[C@H](O)c1ccc([N+](=O)[O-])cc1)C(Cl)Cl [Chloramphenicol] | 32 (≈ 10.3 µg/mL) | 32 (≈ 10.3 µg/mL) | 32 (≈ 10.3 µg/mL) | 32 (≈ 10.3 µg/mL) | 6 to 50 | MIC, Antibiotic Alone (E. coli ATCC 25922 [3]): 16 µM (≈ 5.17 µg/mL); MIC, Antibiotic +NH2-triguan-6C (E. coli ATCC 25922 [3]; non-covalent mixture): 16 µM (≈ 5.17 µg/mL); MIC, Antibiotic +NO2-triamine-2C (E. coli ATCC 25922 [3]; non-covalent mixture): 16 µM (≈ 5.17 µg/mL); MIC, Antibiotic +NO2-triamine-6C (E. coli ATCC 25922 [3]; non-covalent mixture): 16 µM (≈ 5.17 µg/mL); Literature MIC (E. coli ATCC 25922 [4]): 6 to 25 µM
4 | O=C1CN(/N=C/c2ccc([N+](=O)[O-])o2)C(=O)N1 [Nitrofurantoin] | 128 (≈ 30.5 µg/mL) | 256 (≈ 61 µg/mL) | 256 (≈ 61 µg/mL) | 128 (≈ 30.5 µg/mL) |  | 
5 | O=C(O)c1cn(C2CC2)c2cc(N3CCNCC3)c(F)cc2c1=O [Ciprofloxacin] |  |  |  |  | 0.4 to 1.5 | 
6 | CN(C)[C@@H]1C(O)=C(C(N)=O)C(=O)[C@@]2(O)C(O)=C3C(=O)c4c(O)cccc4[C@@](C)(O)[C@H]3C[C@@H]12 [Tetracycline] |  |  |  |  |  | MIC, Antibiotic +NH2-triguan-6C (S. aureus ATCC 29213 [1]; [7]): 2 µM (≈ 0.889 µg/mL); MIC, Antibiotic +NO2-triamine-2C (S. aureus ATCC 29213 [1]; [7]): 2 µM (≈ 0.889 µg/mL); MIC, Antibiotic +NO2-triamine-6C (S. aureus ATCC 29213 [1]; [7]): 2 µM (≈ 0.889 µg/mL); MIC (S. aureus ATCC 29213 [1]; Staphylococcus aureus, ATCC29213, 20 h, cation-adjusted MHB2, polystyrene microwell plate (Costar 3370)): 2 µM (≈ 0.889 µg/mL)
